Experimental data taken from article PMC7168207, “Dibasic Derivatives of Phenylcarbamic Acid as Prospective Antibacterial Agents Interacting with Cytoplasmic Membrane” (Antibiotics, 2020).
Several values for one entry are separate records, joined by “and”; a condition that tells them apart may be missing. Identical values can stand only once. Marks after values point to notes of the source that are not given here.

How the values were obtained:
VRE 368 [1] = assay: synergy with antibiotics (FIC index, checkerboard); type: cell-based, Enterococcus faecalis; conditions: Enterococcus, VRE, VRE 368; tested compound/antibiotic; read-out: MIC of each antibacterial drug alone observed in the synergy experiment
From the text: (§1) Representatives from various classes were chosen in order to study the potential difference in synergistic activity according to the diverse mechanisms of action and resistance of these drugs. The method of minimal fractional inhibitory concentration (FIC) index (FICI) in a microtitration plate was used. FICI ≤ 0.5 means synergy; 0.5 < FICI < 1 means additivity; 1 ≤ FICI < 4 means indifference; and FICI ≥ 4 means antagonism.
(§2) For synergy effect study, a method of fractional inhibitory concentration was used. […] Raw H was used for the evaluation of MIC(A); column 12 was used for evaluation of MIC(B). The plate was inoculated by the bacterial suspension to reach final concentration of 5 × 10^5 CFU/mL in the wells. The fractional inhibitory concentration (FIC) index was calculated using the concentrations in the first nonturbid (clear) well found in each row and column along the turbidity/nonturbidity interface. To interpret the combined effect, the lowest FICI was used. A ΣFIC ≤ 0.5 means synergy; 0.5 < ΣFIC < 1 means additivity; 1 ≤ ΣFIC < 4 means indifference; and ΣFIC ≥ 4 means antagonism. The tests were made in duplicate, and the results were averaged.

VRE 342B [2] = assay: synergy with antibiotics (FIC index, checkerboard); type: cell-based, Enterococcus faecalis; conditions: VRE 342B
From the text: as §1, §2

VRE 368 [3] = assay: time-kill study; type: cell-based, Enterococcus faecalis; conditions: VRE2
From the text: (§3) Time-kill studies are used to evaluate the dynamics of antibacterial activity. As mentioned above, a pre-test to determine minimum bactericidal concentration (MBC) by sub-cultivation of aliquots on agar was made (see Section 3.4). […] Time-kill studies were made with methicillin-susceptible S. aureus ATCC 29213 and methicillin-resistant MRSA 63718, vancomycin-susceptible E. faecalis ATCC 29212, and all three VRE isolates. Vancomycin was used as a control (Table 6).
(§4) The method of time-kill curves was used to study the bactericidal effect of selected compounds. […] The experiment was performed with S. aureus ATCC 29213, MRSA 63718, E. faecalis ATCC 29212, and all VRE isolates. […] The tubes were inoculated by bacterial inoculum in the exponential phase of growth to get a final concentration of 7.5 × 10^6 CFU/mL. The tubes were incubated statically at 37 °C. Immediately after inoculation and after 4, 6, 8, and 24 h, 100 µL of the sample was serially diluted (1:10) in PBS. Then, 2 × 20 µL from each dilution were put onto a Mueller–Hinton agar plate and cultivated at 37 °C for 24 h. After incubation, CFUs of dilutions containing 5–50 colonies were counted. Results were expressed as a decrease of log10(CFU) in each time compared to the starting inoculum. Bactericidal effect is defined as a −3log decrease of CFU/mL compared to the growth control in time 0. The test was made in duplicate on two separate occasions, and the results were averaged. The growth curves with error bars are shown in Figures S1 and S2 in Supplementary Materials.

E. faecalis ATCC 29212 = assay: time-kill study; type: cell-based, Enterococcus faecalis; conditions: EF
From the text: as §3, §4

VRE 725B [4] = assay: time-kill study; type: cell-based, Enterococcus faecalis; conditions: VRE3
From the text: as §3, §4

VRE 342B [5] = assay: time-kill study; type: cell-based, Enterococcus faecalis; conditions: VRE1
From the text: as §3, §4

[6] = system: Candida albicans CCM 8261; assay: minimum fungistatic concentration, RPMI 1640; type: cell-based; conditions: CCM8261, CA = C albicans CCM 8261, 48 h
How it was run: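 Broth microdilution in RPMI 1640 with a final inoculum of 10^3 CFU/mL, incubated 48 h at 37 °C. The endpoint was the lowest concentration giving visually complete (100%) growth inhibition.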

VRE 725B [7] = assay: synergy with antibiotics (FIC index, checkerboard); type: cell-based, Enterococcus faecalis; conditions: combination with VAN, data not shown
From the text: as §1
The used VRE strains were isolated from American crows by Oravcova et al., and their genetic profiles were characterized. All the VRE strains were carrying genes vanA, tetM, and ermB. Strains VRE 368 and VRE 725B carried gene aac, which provided acquired aminoglycoside resistance.
as §2

MRSA SA 3202 = assay: synergy with antibiotics (FIC index, checkerboard); type: cell-based, Staphylococcus aureus; conditions: in the combination of that line
From the text: as §1, §2

## CCCCCCCOc1cccc(NC(=O)OC(CN(CCC)CCC)CN2CCCC2)c1.Cl.Cl (stereo not drawn) [1h, 1-[3-(Dipropylammonio)-2-({[3-(heptyloxy)phenyl]carbamoyl}oxy)propyl]pyrrolidinium dichloride]
VRE 368 [1]
  MIC: 4 µg/mL
VRE 342B [2]; Enterococcus, tested compound/antibiotic, read-out: MIC of each antibacterial drug alone observed in the synergy experiment
  MIC: 8 µg/mL
VRE 342B [2]; in the combination of that line
  concentrations of the tested compound/clinically used antibiotic providing additivity or synergy: 2 µg/mL
VRE 368 [3]; 1 × MIC, 4 h
  Log10 Difference in CFU/mL from Inoculum: 0.46 log10 CFU/mL
VRE 368 [3]; 1 × MIC, 6 h
  Log10 Difference in CFU/mL from Inoculum: 0.71 log10 CFU/mL
VRE 368 [3]; 1 × MIC, 8 h
  Log10 Difference in CFU/mL from Inoculum: 1.25 log10 CFU/mL
VRE 368 [3]; 1 × MIC, 24 h
  Log10 Difference in CFU/mL from Inoculum: 1.13 log10 CFU/mL
VRE 368 [3]; 2 × MIC, 4 h
  Log10 Difference in CFU/mL from Inoculum: 0.28 log10 CFU/mL
VRE 368 [3]; 2 × MIC, 6 h
  Log10 Difference in CFU/mL from Inoculum: 0.54 log10 CFU/mL
VRE 368 [3]; 2 × MIC, 8 h
  Log10 Difference in CFU/mL from Inoculum: −0.37 log10 CFU/mL
VRE 368 [3]; 2 × MIC, 24 h
  Log10 Difference in CFU/mL from Inoculum: 0.66 log10 CFU/mL
VRE 368 [3]; 4 × MIC, 4 h
  Log10 Difference in CFU/mL from Inoculum: −0.32 log10 CFU/mL
VRE 368 [3]; 4 × MIC, 6 h
  Log10 Difference in CFU/mL from Inoculum: 0.05 log10 CFU/mL
VRE 368 [3]; 4 × MIC, 8 h
  Log10 Difference in CFU/mL from Inoculum: 0.22 log10 CFU/mL
VRE 368 [3]; 4 × MIC, 24 h
  Log10 Difference in CFU/mL from Inoculum: 0.37 log10 CFU/mL
E. faecalis ATCC 29212; 1 × MIC, 4 h
  Log10 Difference in CFU/mL from Inoculum: −0.64 log10 CFU/mL
E. faecalis ATCC 29212; 1 × MIC, 6 h
  Log10 Difference in CFU/mL from Inoculum: 0.16 log10 CFU/mL
E. faecalis ATCC 29212; 1 × MIC, 8 h
  Log10 Difference in CFU/mL from Inoculum: 0.24 log10 CFU/mL
E. faecalis ATCC 29212; 1 × MIC, 24 h
  Log10 Difference in CFU/mL from Inoculum: 0.34 log10 CFU/mL
E. faecalis ATCC 29212; 2 × MIC, 4 h
  Log10 Difference in CFU/mL from Inoculum: −1.87 log10 CFU/mL
E. faecalis ATCC 29212; 2 × MIC, 6 h
  Log10 Difference in CFU/mL from Inoculum: −1.36 log10 CFU/mL
E. faecalis ATCC 29212; 2 × MIC, 8 h
  Log10 Difference in CFU/mL from Inoculum: −0.86 log10 CFU/mL
E. faecalis ATCC 29212; 2 × MIC, 24 h
  Log10 Difference in CFU/mL from Inoculum: 0.42 log10 CFU/mL
E. faecalis ATCC 29212; 4 × MIC, 4 h
  Log10 Difference in CFU/mL from Inoculum: −2.57 * log10 CFU/mL
E. faecalis ATCC 29212; 4 × MIC, 6 h
  Log10 Difference in CFU/mL from Inoculum: −2.23 * log10 CFU/mL
E. faecalis ATCC 29212; 4 × MIC, 8 h
  Log10 Difference in CFU/mL from Inoculum: −1.62 log10 CFU/mL
E. faecalis ATCC 29212; 4 × MIC, 24 h
  Log10 Difference in CFU/mL from Inoculum: 0.49 log10 CFU/mL
VRE 725B [4]; 1 × MIC, 4 h
  Log10 Difference in CFU/mL from Inoculum: −0.70 log10 CFU/mL
VRE 725B [4]; 1 × MIC, 6 h
  Log10 Difference in CFU/mL from Inoculum: 0.08 log10 CFU/mL
VRE 725B [4]; 1 × MIC, 8 h
  Log10 Difference in CFU/mL from Inoculum: −0.05 log10 CFU/mL
VRE 725B [4]; 1 × MIC, 24 h
  Log10 Difference in CFU/mL from Inoculum: 0.92 log10 CFU/mL
VRE 725B [4]; 2 × MIC, 4 h
  Log10 Difference in CFU/mL from Inoculum: −1.81 log10 CFU/mL
VRE 725B [4]; 2 × MIC, 6 h
  Log10 Difference in CFU/mL from Inoculum: −1.31 log10 CFU/mL
VRE 725B [4]; 2 × MIC, 8 h
  Log10 Difference in CFU/mL from Inoculum: −0.81 log10 CFU/mL
VRE 725B [4]; 2 × MIC, 24 h
  Log10 Difference in CFU/mL from Inoculum: 0.95 log10 CFU/mL
VRE 725B [4]; 4 × MIC, 4 h
  Log10 Difference in CFU/mL from Inoculum: −1.75 * log10 CFU/mL
VRE 725B [4]; 4 × MIC, 6 h
  Log10 Difference in CFU/mL from Inoculum: −0.76 log10 CFU/mL
VRE 725B [4]; 4 × MIC, 8 h
  Log10 Difference in CFU/mL from Inoculum: −0.76 log10 CFU/mL
VRE 725B [4]; 4 × MIC, 24 h
  Log10 Difference in CFU/mL from Inoculum: 1.08 log10 CFU/mL
VRE 342B [5]; 1 × MIC, 4 h
  Log10 Difference in CFU/mL from Inoculum: 0.07 log10 CFU/mL
VRE 342B [5]; 1 × MIC, 6 h
  Log10 Difference in CFU/mL from Inoculum: 1.08 log10 CFU/mL
VRE 342B [5]; 1 × MIC, 8 h
  Log10 Difference in CFU/mL from Inoculum: −0.08 log10 CFU/mL
VRE 342B [5]; 1 × MIC, 24 h
  Log10 Difference in CFU/mL from Inoculum: 1.42 log10 CFU/mL
VRE 342B [5]; 2 × MIC, 4 h
  Log10 Difference in CFU/mL from Inoculum: 0.09 log10 CFU/mL
VRE 342B [5]; 2 × MIC, 6 h
  Log10 Difference in CFU/mL from Inoculum: 0.41 log10 CFU/mL
VRE 342B [5]; 2 × MIC, 8 h
  Log10 Difference in CFU/mL from Inoculum: −0.02 log10 CFU/mL
VRE 342B [5]; 2 × MIC, 24 h
  Log10 Difference in CFU/mL from Inoculum: 0.47 log10 CFU/mL
VRE 342B [5]; 4 × MIC, 4 h
  Log10 Difference in CFU/mL from Inoculum: −0.78 log10 CFU/mL
VRE 342B [5]; 4 × MIC, 6 h
  Log10 Difference in CFU/mL from Inoculum: −0.99 log10 CFU/mL
VRE 342B [5]; 4 × MIC, 8 h
  Log10 Difference in CFU/mL from Inoculum: −0.66 log10 CFU/mL
VRE 342B [5]; 4 × MIC, 24 h
  Log10 Difference in CFU/mL from Inoculum: 0.85 log10 CFU/mL
[6]
  MIC: 8 µg/mL and 15 µM
VRE 725B [7]
  effect of the combination with VAN: indifferent effect
MRSA SA 3202
  concentrations of the tested compound/clinically used antibiotic providing additivity or synergy: 4 µg/mL
